Details: for mass density: Vibrating tube method

FC(F)(F)C(F)(F)C(F)(F)C(F)(F)F [decafluorobutane]
speed of sound [m/s], Gas, sonar gas analyzer
Details	10 kPa	20 kPa	30 kPa	50 kPa	70 kPa	100 kPa	150 kPa	200 kPa	250 kPa	300 kPa
248.7 K	95.1	94.56	93.98	–	–	–	–	–	–	–
257.7 K	96.57	96.22	95.7	94.78	–	–	–	–	–	–
271.3 K	99.26	98.71	98.33	97.39	96.39	94.79	–	–	–	–
281.5 K	101.05	100.64	100.23	99.38	98.4	97.04	95.08	–	–	–
293.1 K	103.02	102.7	102.37	101.71	100.86	99.66	97.68	95.63	–	–
303.1 K	104.78	104.57	104.25	103.35	103.06	103.05	99.91	98.41	96.5	94.89

FC(F)(F)C(F)(F)C(F)(F)C(F)(F)C(F)(F)C(F)(F)C(F)(F)F [hexadecafluoroheptane]
101.33 kPa, Liquid
Details	mass density [kg/m3]
278.15 K	1769.3
288.15 K	1751
298.15 K	1728.4
308.15 K	1700.8
318.15 K	1672.7
328.15 K	1641.9
333.15 K	1629.4

101.33 kPa, Liquid, sound analyzer
Details	speed of sound [m/s]
278.15 K	608.3
288.15 K	578.42
298.15 K	548.73
308.15 K	517.47
318.15 K	500.56
328.15 K	470.6
333.15 K	457.24

FC(F)(F)C(F)(F)C(F)(F)C(F)(F)C(F)(F)C(F)(F)C(F)(F)C(F)(F)F [octadecafluorooctane]
101.33 kPa, Liquid
Details	mass density [kg/m3]
278.15 K	1810
288.15 K	1786.7
298.15 K	1760.6
308.15 K	1735
318.15 K	1708.6
328.15 K	1681.6
338.15 K	1656.4

101.33 kPa, Liquid, sound analyzer
Details	speed of sound [m/s]
278.15 K	640.32
288.15 K	610.05
298.15 K	581.94
308.15 K	552.33
318.15 K	524.1
328.15 K	508.43
338.15 K	479.24

FC(F)(F)C(F)(F)C(F)(F)F [octafluoropropane]
speed of sound [m/s], Gas, sonar gas analyzer
Details	248.2 K	259.8 K	270.2 K	272.6 K	283.2 K	296.1 K	303.9 K
10 kPa	107.9	–	112.31	–	–	–	119.13
20 kPa	107.6	110	111.99	–	114.63	–	118.98
30 kPa	107.25	109.59	111.77	–	114.12	–	118.79
50 kPa	106.56	108.88	111.27	–	113.84	116.81	118.42
70 kPa	105.77	108.23	110.9	–	113.1	116.31	118.04
100 kPa	104.62	107.27	–	110.29	112.46	115.55	117.43
150 kPa	102.76	105.51	–	108.59	111.28	114.42	116.26
200 kPa	–	103.72	–	106.9	109.88	113.23	115.36
250 kPa	–	101.83	–	105.22	108.56	111.94	114.31
300 kPa	–	–	–	103.59	107.1	110.7	113.14
350 kPa	–	–	–	101.9	105.61	109.43	112
400 kPa	–	–	–	100.27	103.99	108.12	110.63

FC(F)(F)C(F)(F)C(F)(F)C(F)(F)C(F)(F)C(F)(F)F [perfluorohexane]
101.33 kPa, Liquid
Details	mass density [kg/m3]
278.15 K	1739.8
288.15 K	1712.7
298.15 K	1682.8
308.15 K	1651.9

101.33 kPa, Liquid, sound analyzer
Details	speed of sound [m/s]
278.15 K	571.89
288.15 K	540.31
298.15 K	510.7
